Patent publication US5248604A, “Enzymatically active recombinant human acetylcholinesterase and hosts and vectors for expression thereof” (priority 1991, dated 1993)

How the values were obtained:
[1] = target: T1, recombinant human acetylcholinesterase mutant ser/r-met-AChE (serine instead of cysteine at position 611, additional N-terminal methionine); SEQ ID NO:1 numberin (Homo sapiens, UniProt P22303, C611S); assay: Inhibitor specificity: enzyme reacted five minutes with inhibitor, then acetylthiocholine added (Ellman assay); type: biochemical; conditions: increasing dosages from 0.8×10^-8 M to 0.8×10^-6 M; dose-dependent
T1 construct: made in house; host or cells: E. coli S.phi.930 harboring pMLF-52ser
Procedure: (§1) AChE activity was assayed by the spectrophotometric method of Ellman using acetylthiocholine as substrate (Ellman, G.L. et al. ([…]) Biochem. Pharm. 7: 88-95)). Acetylthiocholine hydrolysis generates free thiocholine which reacts with Ellman reagent (DTNB) to produce a yellow chromophore. The concentration of the yellow chromophore is determined by the absorption at 412 nm and is proportional to the amount of AChE present. One enzyme unit (U) is the amount of enzyme which hydrolyses 1 μmole of substrate per minute. The extinction coefficient of 1 M chromophore is […]. Specific activity is expressed as U/mg protein.
(§2) The authenticity of the activity of the refolded r-met-AChE and ser/r-met-AChE was verified by testing the refolded protein with two different substrates and a specific inhibitor. Acetylthiocholine (the specific substrate), and butyrylthiocholine (the BuChE substrate), and a specific inhibitor BW-284C51 (see Background of the Invention) were tested to see whether the recombinant enzyme retained the specific characteristics of the naturally-occurring enzyme. The enzyme was assayed with each of the two substrates, or first reacted for five minutes with the specific inhibitor BW-284651 and then the specific substrate was added to the reaction mix. […] Since the butyrylthiocholine was present at a 20-fold higher concentration than acetylthiocholine it is seen that the enzymatic activity towards the butyrylthiocholine is 200-fold less than towards the specific substrate. No activity at all was detected towards the 0.05 mM butyrylthiocholine.

[2] = target: T2, recombinant human acetylcholinesterase mutant ser/r-met-AChE (serine instead of cysteine at position 611, additional N-terminal methionine; SEQ ID NO:1 numbering) (Homo sapiens, UniProt P22303, C611S); assay: as above; type: biochemical; conditions: substrate acetylthiocholine, non-purified enzyme
T2 construct: made in house; host or cells: E. coli S.phi.930 harboring pMLF-52ser
Procedure: as §1, §2

[3] = test system: CC(=O)SCC[N+](C)(C)C; assay: purified protein, by the assay type; conditions: other: refolded enzyme; Lineweaver-Burk plot (FIG. 8); pH 8.0
Procedure: Lineweaver-Burk Plot of ser/r-met-AChE Enzyme kinetics were determined for the mutant rAChE using acetylthiocholine as substrate.
AChE activity was assayed by the spectrophotometric method of Ellman using acetylthiocholine as substrate (Ellman, G.L. et al. (1981) Biochem. Pharm. 7: 88-95)). Acetylthiocholine hydrolysis generates free thiocholine which reacts with Ellman reagent (DTNB) to produce a yellow chromophore. The concentration of the yellow chromophore is determined by the absorption at 412 nm and is proportional to the amount of AChE present. One enzyme unit (U) is the amount of enzyme which hydrolyses 1 μmole of substrate per minute. The extinction coefficient of 1 M chromophore is 13.6×10^4. Specific activity is expressed as U/mg protein.

T2 sequence (P22303 32-614 C611S): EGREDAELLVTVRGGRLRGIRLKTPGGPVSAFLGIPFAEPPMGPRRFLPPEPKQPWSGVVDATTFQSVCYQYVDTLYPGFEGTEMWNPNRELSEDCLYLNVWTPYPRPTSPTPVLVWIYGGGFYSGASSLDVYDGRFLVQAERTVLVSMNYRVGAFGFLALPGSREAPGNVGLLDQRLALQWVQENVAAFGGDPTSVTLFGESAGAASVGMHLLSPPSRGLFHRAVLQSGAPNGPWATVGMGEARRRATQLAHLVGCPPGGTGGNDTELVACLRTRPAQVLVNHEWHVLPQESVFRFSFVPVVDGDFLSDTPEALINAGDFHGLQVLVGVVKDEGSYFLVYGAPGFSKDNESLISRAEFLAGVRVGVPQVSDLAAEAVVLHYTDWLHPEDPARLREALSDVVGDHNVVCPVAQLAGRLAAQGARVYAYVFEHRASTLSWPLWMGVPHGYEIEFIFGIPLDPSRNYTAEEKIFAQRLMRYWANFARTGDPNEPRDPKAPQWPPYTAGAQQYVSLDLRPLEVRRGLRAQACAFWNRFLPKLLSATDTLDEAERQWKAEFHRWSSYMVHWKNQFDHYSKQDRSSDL
T1 sequence (P22303 32-614 C611S): as above

Row | Compound | inhibition [1] | inhibition at 0.8 µM ([2]; BW284C51 0.8 × 10^-6 M) [%] | inhibition at 0.08 µM ([2]; BW284C51 0.8 × 10^-7 M) [%] | inhibition at 0.008 µM ([2]; BW284C51 0.8 × 10^-8 M) [%] | Km [3] [µM]
1 | C=CC[N+](C)(C)c1ccc(CCC(=O)CCc2ccc([N+](C)(C)CC=C)cc2)cc1 [BW284C51] | 57%-100% | 100 | 87 | 55 | 
2 | recombinant human acetylcholinesterase mutant ser/r-met-AChE (serine instead of cysteine at position 611, additional N-terminal methionine; SEQ ID NO:1 numbering) (Homo sapiens; C611S) |  |  |  |  | 100
